Tests used:
[1] = test system: patients with moderate to severe rheumatoid arthritis; assay: VeRA trial of the p38MAPK inhibitor VX-702 in rheumatoid arthritis; assay type: in vivo, human; details: according to a Monte Carlo simulation of the distribution of the effects
Method: It has been claimed that p38MAPK inhibitors were of benefit in treating a large variety of disorders. […] In the VeRA trial, which was conducted to evaluate treatment effects in terms of characteristic manifestations of the disease such as tender joints, swollen joints, morning stiffness and disease activity in a cohort of 315 patients with moderate to severe rheumatoid arthritis, approximately 40% of patients were responsive to treatment with the p38MAPK inhibitor VX-702, compared to a placebo effect of about 30%, arguing for a biochemical net response rate of about 28% according to a Monte Carlo simulation of the distribution of the effects. So far, no explanation for this evident dichotomy between responders and non-responders has been proposed yet.

[2] = test system: patients with moderate to severe rheumatoid arthritis; details: cohort of 315 patients with moderate to severe rheumatoid arthritis; placebo effect about 30%; cited from earlier work
p38MAPKα = p38MAPKα (Homo sapiens, UniProt Q16539); details: disclosed in WO 2004/110990; cited from earlier work
Sequence of p38MAPKα (Q16539 1-360 isoform Q16539-2): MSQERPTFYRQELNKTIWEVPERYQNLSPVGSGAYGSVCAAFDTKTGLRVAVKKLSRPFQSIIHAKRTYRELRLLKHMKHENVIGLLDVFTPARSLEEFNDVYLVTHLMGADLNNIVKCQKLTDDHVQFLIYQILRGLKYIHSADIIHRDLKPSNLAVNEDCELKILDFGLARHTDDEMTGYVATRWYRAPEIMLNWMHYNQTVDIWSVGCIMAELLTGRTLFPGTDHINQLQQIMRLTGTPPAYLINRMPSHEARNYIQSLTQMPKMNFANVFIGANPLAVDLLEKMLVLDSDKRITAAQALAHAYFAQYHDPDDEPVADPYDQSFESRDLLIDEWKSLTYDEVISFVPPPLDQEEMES

Row | SMILES | biochemical net response rate [1] | patients responsive to treatment [2] | IC50 (p38MAPKα) [nM]
1 | NC(=O)c1ccc(N(C(N)=O)c2c(F)cccc2F)nc1-c1ccc(F)cc1F [VX-702] | about 28% | approximately 40% | 
2 | Fc1ccc(-c2nc3occn3c2-c2ccnc(NC3CC3)n2)cc1 [4-(4-fluorophenyl)-5-(2-[cyclopropyl-amino]-pyrimidyl-4-yl)-imidazooxazole] |  |  | 0.44

From US20090098536A1, “Method for subgroup analysis in subjects having or being suspected of having inflammatory disease, use of anti-p38MAPK antibodies, kits and their use” (c-a-i-r- biosciences GmbH, priority 2007, published 2009)
